The source of these data is US8227491B2, “5-(3,4-dichloro-phenyl)-N-(2-hydroxy-cyclohexyl)-6-(2,2,2-trifluoro-ethoxy)-nicotinamide and salts thereof” (Hoffmann-La Roche Inc., priority 2009, dated 2012).

For test [1], the target named is T1, human cannabis CB1 receptor (Homo sapiens, UniProt P21554).
T1 construct: expressed in transfected cells; host or cells: human embryonic kidney (HEK) cells, Semliki Forest Virus system, membrane preparations
The experiment in a line: CB1 receptor affinity, [3H]-CP-55,940 radioligand binding on HEK cell membranes. The conditions noted are these: Ki calculated from IC50 (Cheng-Prusoff). The method, then: (§1) The affinity of the compounds of the invention for cannabinoid receptors was determined using membrane preparations of human embryonic kidney (HEK) cells in which the human cannabis CB1 receptor is transiently transfected using the Semliki Forest Virus system in conjunction with [3H]-CP-55,940 as radioligand. After incubation of freshly prepared cell membrane preparation with the [3H]-ligand, with or without addition of compounds of the invention, separation of bound and free ligand was performed by filtration over glass fiber filters. Radioactivity on the filter was measured by scintillation counting.
(§2) Ki values were calculated from the IC50 using the Cheng-Prusoff equation.

For a further test, the system named is HDL cholesterol levels. Kind of test: Effects on plasma lipid levels in hamsters. In kind it is in vivo. The following applies: male hamsters, 30 mg/kg p.o. once daily for five days, blood 2 hours after final treatment, 4 hour-fasted. How it is done: Efficacy of compounds in modulating plasma lipid levels was determined in hamsters after 5 days of daily administration of compounds. Male hamsters of 6-8 weeks of age were used in the studies. After one week of acclimation, blood samples were collected from 4 hour-fasted animals for plasma lipid determination. Animals were then assigned to treatment groups based on HDL-cholesterol levels. Compounds were administered by gavage, once daily for five days. Control animals received vehicle alone. Blood was collected on day five from 4 hour-fasted hamsters, 2 hours after a final treatment, for plasma lipid analysis. Total cholesterol, HDL-cholesterol, LDL-cholesterol, and triglycerides were determined using colorimetric enzymatic assays (Roche Diagnostic GmbH, Mannheim, Germany). HDL-cholesterol was also determined after selective precipitation of HDL from plasma by standard procedures.

The target of test [2] is T2, human cannabis CB2 receptor (Homo sapiens, UniProt P34972).
T2 construct: expressed in transfected cells; host or cells: human embryonic kidney (HEK) cells, Semliki Forest Virus system, membrane preparations
Kind of test: CB2 receptor affinity, [3H]-CP-55,940 radioligand binding on HEK cell membranes. The conditions noted are these: Ki calculated from IC50 (Cheng-Prusoff). How it is done: as §1, with “cannabinoid CB2” for “cannabinoid”, “CB2” for “CB1”
as §2

T1 sequence (P21554 whole entry): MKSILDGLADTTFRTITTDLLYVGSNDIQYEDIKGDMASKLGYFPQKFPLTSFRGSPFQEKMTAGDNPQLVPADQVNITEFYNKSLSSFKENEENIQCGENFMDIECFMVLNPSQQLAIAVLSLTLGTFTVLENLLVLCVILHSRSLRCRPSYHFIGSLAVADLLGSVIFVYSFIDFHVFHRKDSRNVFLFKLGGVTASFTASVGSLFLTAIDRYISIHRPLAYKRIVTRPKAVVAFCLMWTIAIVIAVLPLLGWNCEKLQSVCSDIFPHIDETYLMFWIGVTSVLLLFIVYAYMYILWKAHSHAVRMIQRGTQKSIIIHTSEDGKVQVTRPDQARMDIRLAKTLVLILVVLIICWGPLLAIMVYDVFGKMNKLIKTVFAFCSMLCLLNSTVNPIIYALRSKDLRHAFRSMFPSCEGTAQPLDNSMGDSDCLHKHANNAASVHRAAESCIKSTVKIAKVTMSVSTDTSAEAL
T2 sequence (P34972 whole entry): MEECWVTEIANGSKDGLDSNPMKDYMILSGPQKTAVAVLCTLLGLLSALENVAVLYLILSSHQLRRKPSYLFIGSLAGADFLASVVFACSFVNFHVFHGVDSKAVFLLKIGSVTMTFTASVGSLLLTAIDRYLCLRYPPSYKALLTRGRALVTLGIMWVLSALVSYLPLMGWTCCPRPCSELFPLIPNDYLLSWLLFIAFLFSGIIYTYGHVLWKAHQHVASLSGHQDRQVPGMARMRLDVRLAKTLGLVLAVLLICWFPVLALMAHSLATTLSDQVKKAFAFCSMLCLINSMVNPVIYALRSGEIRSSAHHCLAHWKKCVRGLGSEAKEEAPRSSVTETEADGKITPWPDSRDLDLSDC

For orientation: Ki means a dissociation constant, usually derived from enzyme kinetics or from competition with a known ligand. As to `O=C(N[C@H]1CCCC[C@H]1O)c1cnc(OCC(F)(F)F)c(-c2ccc(Cl)c(Cl)c2)c1` [5-(3,4-Dichloro-phenyl)-N-((1S,2R)-2-hydroxy-cyclohexyl)-6-(2,2,2-trifluoro-ethoxy)-nicotinamide], the Ki in test [1] and in test [2] was above 10 µM throughout. Besides, the “HDL Cholesterol levels [as % compared to control] @ 30 mg/kg p.o. of compound” value in the test on HDL cholesterol levels is listed as “+121.9 ± 21.0%”.
Regarding `O=C(N[C@@H]1CCCC[C@H]1O)c1cnc(OCC(F)(F)F)c(-c2ccc(Cl)c(Cl)c2)c1` [5-(3,4-dichloro-phenyl)-N-((1R,2R)-2-hydroxy-cyclohexyl)-6-(2,2,2-trifluoro-ethoxy)-nicotinamide], the Ki in test [1] is 1.3 µM; in test [2], above 10 µM. Moreover, the “HDL Cholesterol levels [as % compared to control] @ 30 mg/kg p.o. of compound” value in the test with HDL cholesterol levels is recorded as “+77.9 ± 11.1%”.
For `O=C(N[C@@H]1CCCC[C@H]1O)c1cnc(OCC(F)(F)F)c(-c2ccc(Cl)cc2)c1` [5-(4-Chloro-phenyl)-N-((1R,2R)-2-hydroxy-cyclohexyl)-6-(2,2,2-trifluoro-ethoxy)-nicotinamide, reference compound] the same measures were 0.028 µM, above 10 µM and “+103.8 ± 14.7%”.
